In patent EP2246331A1, “NR2B-selective NMDA-receptor antagonists” (Westfälische Wilhelms-Universität Münster, priority 2009, dated 2010):

Legend:
[1] = target: T1, σ2 receptor (Rattus norvegicus, UniProt Q5U3Y7); assay: Receptor binding assay with [3H]-ditolylguanidine on rat liver membranes; settings: 3 nM [3H]-ditolylguanidine with 2 µM (+)-pentazocine, 180 min at room temperature, mean ± SEM, read-out: affinity to the σ2 receptor
T1 construct: tissue Harlan Winkelmann; host or cells: rat liver membranes
T1 sequence (Q5U3Y7 1-176): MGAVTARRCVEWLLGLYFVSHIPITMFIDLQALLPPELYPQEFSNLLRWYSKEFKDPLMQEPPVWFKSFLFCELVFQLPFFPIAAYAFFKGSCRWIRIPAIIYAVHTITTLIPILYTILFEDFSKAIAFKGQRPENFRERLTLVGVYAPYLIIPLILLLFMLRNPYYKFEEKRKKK
Method: (§1) The pig brains were a donation of the local slaughterhouse (Coesfeld, Germany). Homogenizer: Elvehjem Potter (B. Braun Biotech International, Melsungen, Germany). Centrifuge: High-speed cooling centrifuge model Sorvall RC-5C plus (Thermo Fisher Scientific, Langenselbold, Germany). Filter: Printed Filtermat Typ A and B (Perkin Elmer LAS, Rodgau-Jügesheim, Germany), presoaked in 0.5% aqueous polyethylenimine for 2 h at room temperature before use. […] Before filling to the final volume of 1000 mL, the pH of the solution was adjusted to pH=7.5 by dropwise addition of 1M HCl. The filtration was carried out with a MicroBeta FilterMate-96 Harvester (Perkin Elmer). The scintillation analysis was performed using Meltilex (Typ A or B) solid scintillator (Perkin Elmer). The solid scintillator was melted on the filtermat at a temperature of 95 °C for 5 minutes. After solidifying of the scintillator at room temperature, the scintillation was measured using a MicroBeta Trilux scintillation analyzer (Perkin Elmer). The overall counting efficiency was 20 %. All experiments were carried out in triplicates using standard 96-well-multiplates (Diagonal, Muenster, Germany). […] The Ki-values are given as mean value ± SEM from three independent experiments.
Determination of affinity to the σ2 receptor
Two rat livers (Harlan Winkelmann, Borchen, Germany) were cut into smaller pieces and homogenized with the potter (500-800 rpm, 10 up-and-down strokes) in 6 volumes of cold 0.32 M sucrose. The suspension was centrifuged at 1200 x g for 10 min at 4 °C. The supernatant was separated and centrifuged at 31000 x g for 20 min at 4 °C. The pellet was resuspended in 5-6 volumes of buffer (50 mM TRIS, pH 8.0) and incubated at room temperature for 30 minutes. After the incubation, the suspension was centrifuged again at 31000 x g for 20 min at 4 °C. The final pellet was resuspended in 5 to 6 volumes of buffer, the protein concentration was determined according to the method of Bradford using bovine serum albumin as standard, and subsequently the preparation was frozen (-80 °C) in 1.5 mL portions containing about 2 mg protein/mL.
(50 Ci/mmol; ARC). […] The incubation was terminated by rapid filtration through the presoaked filtermats using a cell harvester. After washing each well five times with 300 µL of water, the filtermats were dried at 95 °C. Subsequently, the solid scintillator was placed on the filtermat and melted at 95 °C. The bound radioactivity trapped on the filters was counted in the scintillation analyzer as described in the "General procedures" section.

[2] = target: T2, σ1 receptor (Cavia porcellus, UniProt Q60492); assay: Receptor binding assay with [3H]-(+)-pentazocine on guinea pig brain membranes; settings: 2 nM [3H]-(+)-pentazocine, guinea pig brain membranes; for Ki: 180 min at 37 °C, mean ± SEM, read-out: affinity to the σ1 receptor
T2 construct: tissue Harlan Winkelmann; host or cells: guinea pig brain membranes
Method: as §1
Determination of the affinity to the σ1 receptor
Five guinea pig brains (Harlan Winkelmann, Borchen, Germany) were homogenized with the potter (500-800 rpm, 10 up-and-down strokes) in 6 volumes of cold 0.32 M sucrose. The suspension was centrifuged at 1200 x g for 10 min at 4 °C. […] This procedure was repeated twice. The final pellet was resuspended in 5 to 6 volumes of buffer, the protein concentration was determined according to the method of Bradford using bovine serum albumin as standard, and subsequently the preparation was frozen (-80 °C) in 1.5 mL portions containing about 1.5 mg protein/mL.
The test was performed with the radioligand [^3H]-(+)-pentazocine (42,5 Ci/mmol; Perkin Elmer). […] The incubation was terminated by rapid filtration through the presoaked filtermats using a cell harvester. After washing each well five times with 300 µl of water, the filtermats were dried at 95 °C. The bound radioactivity trapped on the filters was counted in the scintillation analyzer as described in the "General procedures" section. The non-specific binding was determined with 10 µM unlabeled (+)-pentazocine.

[3] = target: T3, polyamine binding site of the NR2B subunit of the NMDA receptor (Homo sapiens, UniProt Q05586+Q13224); assay: Filtration-based receptor binding assay with [3H]-Ifenprodil as radioligand; settings: 5 nM [3H]-Ifenprodil; membrane homogenates of mouse L(tk-) cells transfected with NR1-1a/NR2B; 180 min at 37 °C; Ki mean of three experiments ± S.E.M.; read-out: affinity to the NR2B binding site of the NMDA receptor
T3 construct: expressed in transfected cells; host or cells: mouse L(tk-) cells, dexamethasone-induced; gift from D. Steinhilber, University of Frankfurt
Method: Mouse L(tk-) cells stably transfected with the dexamethasone-inducible eukaryotic expression vectors pMSG NR1-1a, pMSG NR2B in a 1:5 ratio were a generous gift from D. Steinhilber (Department of Pharmacy, University of Frankfurt, Germany). The transformed L(tk-) cells were grown in Modified Earl's Medium (MEM) containing 10% of standardized FCS (Biochrom AG, Berlin, Germany). The expression of the NMDA receptor at the cell surface was induced after the cell density of the adherent growing cells had reached approximately 90% of confluency. For the induction, the original growth medium was replaced by growth medium containing 4 µM dexamethasone and 4 µM ketamine (final concentration). After 24 h the cells were harvested by trypsination and pelleted (10 min, 5,000 x g, Hettich Rotina 35R centrifuge, Tuttlingen, Germany).
For the binding assay, the cell pellet was resuspended in PBS buffer and the number of cells was determined using an improved Neubauer's counting chamber (VWR, Darmstadt, Germany). Subsequently, the cells were lysed by sonication (4 °C, 6 x 10 s cycles with breaks of 10 sec). The resulting cell fragments were centrifuged with a high performance cool centrifuge (20,000 x g, 4 °C, Sorvall RC-5 plus, Thermo Scientific). The supernatant was discarded and the pellet resuspended in a defined volume of phosphate buffer saline (PBS) yielding cell fragments of approximately 500,000 cells/mL. The suspension of membrane homogenates was sonicated again (4 °C, 2 x 10 s cycles with a break of 10 min) and stored at -80 °C.
The cell membrane suspension was added last. All experiments were carried out in triplicates. The incubation was terminated by rapid filtration through filtermats using a cell harvester (MicroBeta FilterMate-96 Harvester, Perkin Elmer). Prior to harvesting, the filtermats were presoaked in 0.5% aqueous polyethylenimine for 2 h at room temperature. After washing each well five times with 300 µL of water, the filtermats were dried at 95 °C. Subsequently, the solid scintillator was placed on the filtermat and melted at 95 °C. After 5 min, the solid scintillator was allowed to solidify at room temperature. The bound radioactivity trapped on the filters was counted in the scintillation analyzer (Microbeta Counter, Perkin Elmer). The overall counting efficiency was 20%.
The protein concentration was determined by the method of Bradford, modified by Stoscheck. The Bradford solution was prepared by dissolving 5 mg of Coomassie Brilliant Blue G 250 in 2.5 mL EtOH (95%, v/v). 10 mL deionized H2O and 5 mL phosphoric acid (85%, m/v) were added to this solution, the mixture was stirred and filled up to a total volume of 50.0 mL with deionized water. The calibration was carried out using bovine serum protein as a standard in concentrations between 0.1 and 10 mg /L. In a 96-well standard multiplate, 10 µL of the calibration solution or 10 µL of the membrane receptor preparation were mixed with 190 µL of the Bradford solution, respectively.
Kd and Bmax were calculated as described in the "Data analysis" section.
Data analysis was performed with Graph Pad Prism® Software, Version 3.0 (Graph Pad Software Inc., San Diego, CA, USA).
Saturation analyses were made by nonlinear regression using the "one-site-saturation" calculation method. The IC50 values of the test compounds used in the competitive binding experiments were determined by nonlinear regression using the "one-site-competition" calculation method. […] The Ki values are given as mean values from three independent experiments ± Standard Error of the Mean (S.E.M).

[4] = target: phencyclidine binding site of the NMDA receptor; settings: radioligand constant; T. Utech, Dissertation, 2003, Universität Freiburg; cited from earlier work

T2 sequence (Q60492 whole entry): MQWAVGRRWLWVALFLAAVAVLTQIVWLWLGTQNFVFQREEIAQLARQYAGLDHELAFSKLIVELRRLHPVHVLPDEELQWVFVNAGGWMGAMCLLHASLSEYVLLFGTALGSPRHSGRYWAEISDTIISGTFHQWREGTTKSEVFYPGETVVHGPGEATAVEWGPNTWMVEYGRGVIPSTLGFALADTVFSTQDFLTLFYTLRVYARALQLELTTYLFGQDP
T3 sequence (Q13224 27-1484, other chains not shown): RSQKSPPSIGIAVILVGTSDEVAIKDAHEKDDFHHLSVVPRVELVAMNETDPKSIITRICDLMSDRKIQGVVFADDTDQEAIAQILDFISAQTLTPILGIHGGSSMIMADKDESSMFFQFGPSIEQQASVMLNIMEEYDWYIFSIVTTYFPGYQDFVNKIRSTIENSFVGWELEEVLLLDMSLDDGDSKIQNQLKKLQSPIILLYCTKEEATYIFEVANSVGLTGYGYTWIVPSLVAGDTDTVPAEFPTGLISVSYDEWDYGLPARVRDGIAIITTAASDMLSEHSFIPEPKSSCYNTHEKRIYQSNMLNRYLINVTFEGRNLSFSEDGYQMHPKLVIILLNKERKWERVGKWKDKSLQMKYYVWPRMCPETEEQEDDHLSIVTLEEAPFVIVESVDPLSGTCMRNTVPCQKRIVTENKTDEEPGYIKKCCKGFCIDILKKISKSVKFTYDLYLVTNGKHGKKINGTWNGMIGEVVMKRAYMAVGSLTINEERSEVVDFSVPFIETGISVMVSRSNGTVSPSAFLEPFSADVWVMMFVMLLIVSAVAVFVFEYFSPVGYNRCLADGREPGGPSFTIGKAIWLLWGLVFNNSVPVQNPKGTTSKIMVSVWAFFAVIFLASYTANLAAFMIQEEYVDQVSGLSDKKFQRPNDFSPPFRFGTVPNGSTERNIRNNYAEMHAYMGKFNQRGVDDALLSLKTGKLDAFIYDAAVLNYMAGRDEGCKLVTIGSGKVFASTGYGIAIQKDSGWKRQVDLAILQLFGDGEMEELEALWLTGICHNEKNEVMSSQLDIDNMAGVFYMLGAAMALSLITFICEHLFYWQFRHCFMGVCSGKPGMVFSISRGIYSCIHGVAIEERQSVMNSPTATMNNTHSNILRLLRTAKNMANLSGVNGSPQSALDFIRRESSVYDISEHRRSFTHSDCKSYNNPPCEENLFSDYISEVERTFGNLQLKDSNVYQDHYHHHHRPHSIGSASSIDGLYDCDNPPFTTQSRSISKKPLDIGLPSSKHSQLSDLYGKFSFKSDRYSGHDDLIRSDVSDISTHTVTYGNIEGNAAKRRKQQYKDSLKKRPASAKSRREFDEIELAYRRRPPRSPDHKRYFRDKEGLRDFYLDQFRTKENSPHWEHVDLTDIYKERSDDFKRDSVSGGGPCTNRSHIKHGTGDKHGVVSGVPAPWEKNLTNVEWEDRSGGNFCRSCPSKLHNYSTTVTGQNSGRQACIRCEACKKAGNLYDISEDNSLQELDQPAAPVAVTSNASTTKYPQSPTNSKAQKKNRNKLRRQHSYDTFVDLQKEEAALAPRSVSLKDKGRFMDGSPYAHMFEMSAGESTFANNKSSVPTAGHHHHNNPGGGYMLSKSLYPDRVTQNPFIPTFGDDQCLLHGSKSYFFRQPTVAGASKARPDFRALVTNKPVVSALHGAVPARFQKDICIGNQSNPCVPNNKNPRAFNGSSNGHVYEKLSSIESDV

OC1CN(C2CCC3(CC2)OCCO3)CCc2cc(OCc3ccccc3)ccc21 (stereo not shown) [formula (25)]
Ki [1]: 753 nM
Ki [2]: 183 nM
Ki [3]: 1.12 nM

O=C(c1ccccc1)N1CCC(N2CCc3cc(O)ccc3C(O)C2)CC1 (stereo not shown) [formula (26)]
Ki [1]: 97.7 nM
inhibition of the σ1 receptor only at concentrations above ([2]; given as above 1 µM or 10 µM): above 1 µM
Ki [3]: 393 nM

C[C@@H]1[C@H](O)c2ccc(O)cc2CCN1CCCCc1ccccc1 [formula (27)]
Ki [1]: 142 nM
Ki [2]: 85.5 nM
Ki [3]: 12.3 nM

C[C@H]1[C@@H](O)c2ccc(O)cc2CCN1CCCCc1ccccc1 [formula (28)]
Ki [1]: 103 nM
Ki [2]: 393 nM
Ki [3]: 22.1 nM

(+)-MK-801
Kd [4]: 2.26 nM
